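Exposure lasted 48 hours, with cells grown in 96-well plates and compounds tested at five concentrations. GI50: concentration for 50% inhibition of growth. TGI denotes the concentration required for complete inhibition of growth.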
Assays:
Assay in all cases: growth of human tumour cells (NCI), 48 h
RXF 393 renal = system: RXF 393 renal
A498 renal = system: A498 renal
COLO 205 colon = system: COLO 205 colon
UACC-62 melanoma = system: UACC-62 melanoma
NCI/ADR-RES ovarian = system: NCI/ADR-RES ovarian
HCT-116 colon = system: HCT-116 colon
UO-31 renal = system: UO-31 renal
MDA-MB-435 = system: MDA-MB-435
MALME-3M melanoma = system: MALME-3M melanoma
TK-10 renal = system: TK-10 renal
NCI-H226 lung = system: NCI-H226 lung
SN12C renal = system: SN12C renal
MOLT-4 leukemia = system: MOLT-4 leukemia
A549 NSCLC = system: A549 NSCLC
786-0 renal = system: 786-0 renal
HT29 colon = system: HT29 colon
CAKI-1 renal = system: CAKI-1 renal
MCF7 breast = system: MCF7 breast
NCI-H460 lung = system: NCI-H460 lung
K-562 leukemia = system: K-562 leukemia
OVCAR-4 ovarian = system: OVCAR-4 ovarian
U251 CNS = system: U251 CNS
SK-MEL-5 melanoma = system: SK-MEL-5 melanoma
UACC-257 melanoma = system: UACC-257 melanoma
SR leukemia = system: SR leukemia
EKVX NSCLC = system: EKVX NSCLC
SF-539 CNS = system: SF-539 CNS
ACHN renal = system: ACHN renal
OVCAR-5 ovarian = system: OVCAR-5 ovarian
KM12 colon = system: KM12 colon
SF-268 CNS = system: SF-268 CNS
SK-OV-3 ovarian = system: SK-OV-3 ovarian
OVCAR-8 ovarian = system: OVCAR-8 ovarian
M14 melanoma = system: M14 melanoma
HCC-2998 colon = system: HCC-2998 colon
RPMI-8226 leukemia = system: RPMI-8226 leukemia
DU-145 prostate = system: DU-145 prostate
PC-3 prostate = system: PC-3 prostate
SK-MEL-2 melanoma = system: SK-MEL-2 melanoma
NCI-H23 lung = system: NCI-H23 lung
CCRF-CEM leukemia = system: CCRF-CEM leukemia
SW-620 colon = system: SW-620 colon
HS 578T breast = system: HS 578T breast
HCT-15 colon = system: HCT-15 colon
LOX IMVI melanoma = system: LOX IMVI melanoma
SF-295 CNS = system: SF-295 CNS
T-47D breast = system: T-47D breast
SNB-19 CNS = system: SNB-19 CNS
SNB-75 CNS = system: SNB-75 CNS
HOP-92 NSCLC = system: HOP-92 NSCLC
MDA-MB-231 breast = system: MDA-MB-231 breast
IGROV1 ovarian = system: IGROV1 ovarian
OVCAR-3 ovarian = system: OVCAR-3 ovarian
SK-MEL-28 melanoma = system: SK-MEL-28 melanoma
BT-549 breast = system: BT-549 breast
HL-60(TB) leukemia = system: HL-60(TB) leukemia
NCI-H522 lung = system: NCI-H522 lung

`COc1cc(C(=O)N2CCN(c3ccccn3)CC2)c(N)cc1OCc1ccccc1` gave a GI50 (RXF 393 renal) greater than 100 µM, a TGI (RXF 393 renal) greater than 100 µM and a GI50 (A498 renal) of 91.2 µM. For the same compound, the TGI (A498 renal) was greater than 100 µM, the GI50 (COLO 205 colon) was 96.8 µM and the TGI (COLO 205 colon) was greater than 100 µM. It also gave a GI50 (UACC-62 melanoma) of 81 µM, a TGI (UACC-62 melanoma) greater than 100 µM and a GI50 (NCI/ADR-RES ovarian) of 74.6 µM. It also gave a TGI (NCI/ADR-RES ovarian) greater than 100 µM, a GI50 (HCT-116 colon) greater than 100 µM and a TGI (HCT-116 colon) greater than 100 µM. For the same compound, the GI50 (UO-31 renal) was 68.3 µM, the TGI (UO-31 renal) was greater than 100 µM and the GI50 (MDA-MB-435) was greater than 100 µM. It also gave a TGI (MDA-MB-435) greater than 100 µM, a GI50 (MALME-3M melanoma) greater than 100 µM and a TGI (MALME-3M melanoma) greater than 100 µM. The GI50 (TK-10 renal) was greater than 100 µM, the TGI (TK-10 renal) was greater than 100 µM and the GI50 (NCI-H226 lung) was greater than 100 µM. The TGI (NCI-H226 lung) was greater than 100 µM, the GI50 (SN12C renal) was 46.8 µM and the TGI (SN12C renal) was greater than 100 µM. It also gave a GI50 (MOLT-4 leukemia) of 34.1 µM, a TGI (MOLT-4 leukemia) greater than 100 µM and a GI50 (A549 NSCLC) greater than 100 µM. It also gave a TGI (A549 NSCLC) greater than 100 µM, a GI50 (786-0 renal) greater than 100 µM and a TGI (786-0 renal) greater than 100 µM. It also gave a GI50 (HT29 colon) of 78.2 µM, a TGI (HT29 colon) greater than 100 µM and a GI50 (CAKI-1 renal) greater than 100 µM. For the same compound, the TGI (CAKI-1 renal) was greater than 100 µM, the GI50 (MCF7 breast) was 58.5 µM and the TGI (MCF7 breast) was greater than 100 µM. For the same compound, the GI50 (NCI-H460 lung) was greater than 100 µM, the TGI (NCI-H460 lung) was greater than 100 µM and the GI50 (K-562 leukemia) was 20 µM. For the same compound, the TGI (K-562 leukemia) was 74.1 µM, the GI50 (OVCAR-4 ovarian) was 69.9 µM and the TGI (OVCAR-4 ovarian) was greater than 100 µM. It also gave a GI50 (U251 CNS) greater than 100 µM, a TGI (U251 CNS) greater than 100 µM and a GI50 (SK-MEL-5 melanoma) of 30.1 µM. The TGI (SK-MEL-5 melanoma) was greater than 100 µM, the GI50 (UACC-257 melanoma) was greater than 100 µM and the TGI (UACC-257 melanoma) was greater than 100 µM. For the same compound, the GI50 (SR leukemia) was 77.7 µM, the TGI (SR leukemia) was greater than 100 µM and the GI50 (EKVX NSCLC) was greater than 100 µM. The TGI (EKVX NSCLC) was greater than 100 µM, the GI50 (SF-539 CNS) was greater than 100 µM and the TGI (SF-539 CNS) was greater than 100 µM. It also gave a GI50 (ACHN renal) greater than 100 µM, a TGI (ACHN renal) greater than 100 µM and a GI50 (OVCAR-5 ovarian) greater than 100 µM. For the same compound, the TGI (OVCAR-5 ovarian) was greater than 100 µM, the GI50 (KM12 colon) was greater than 100 µM and the TGI (KM12 colon) was greater than 100 µM. The GI50 (SF-268 CNS) was greater than 100 µM, the TGI (SF-268 CNS) was greater than 100 µM and the GI50 (SK-OV-3 ovarian) was greater than 100 µM. The TGI (SK-OV-3 ovarian) was greater than 100 µM, the GI50 (OVCAR-8 ovarian) was greater than 100 µM and the TGI (OVCAR-8 ovarian) was greater than 100 µM. It also gave a GI50 (M14 melanoma) greater than 100 µM, a TGI (M14 melanoma) greater than 100 µM and a GI50 (HCC-2998 colon) greater than 100 µM. It also gave a TGI (HCC-2998 colon) greater than 100 µM, a GI50 (RPMI-8226 leukemia) of 56.4 µM and a TGI (RPMI-8226 leukemia) greater than 100 µM. It also gave a GI50 (DU-145 prostate) greater than 100 µM, a TGI (DU-145 prostate) greater than 100 µM and a GI50 (PC-3 prostate) greater than 100 µM. It also gave a TGI (PC-3 prostate) greater than 100 µM, a GI50 (SK-MEL-2 melanoma) greater than 100 µM and a TGI (SK-MEL-2 melanoma) greater than 100 µM. It also gave a GI50 (NCI-H23 lung) greater than 100 µM, a TGI (NCI-H23 lung) greater than 100 µM and a GI50 (CCRF-CEM leukemia) of 21 µM. It also gave a TGI (CCRF-CEM leukemia) of 39.5 µM, a GI50 (SW-620 colon) greater than 100 µM and a TGI (SW-620 colon) greater than 100 µM. It also gave a GI50 (HS 578T breast) greater than 100 µM, a TGI (HS 578T breast) greater than 100 µM and a GI50 (HCT-15 colon) greater than 100 µM. It also gave a TGI (HCT-15 colon) greater than 100 µM, a GI50 (LOX IMVI melanoma) greater than 100 µM and a TGI (LOX IMVI melanoma) greater than 100 µM. It also gave a GI50 (SF-295 CNS) greater than 100 µM, a TGI (SF-295 CNS) greater than 100 µM and a GI50 (T-47D breast) of 45.2 µM. It also gave a TGI (T-47D breast) greater than 100 µM, a GI50 (SNB-19 CNS) greater than 100 µM and a TGI (SNB-19 CNS) greater than 100 µM. The GI50 (SNB-75 CNS) was 39.9 µM, the TGI (SNB-75 CNS) was greater than 100 µM and the GI50 (HOP-92 NSCLC) was greater than 100 µM. For the same compound, the TGI (HOP-92 NSCLC) was greater than 100 µM, the GI50 (MDA-MB-231 breast) was greater than 100 µM and the TGI (MDA-MB-231 breast) was greater than 100 µM. For the same compound, the GI50 (IGROV1 ovarian) was greater than 100 µM, the TGI (IGROV1 ovarian) was greater than 100 µM and the GI50 (OVCAR-3 ovarian) was 55.8 µM. The TGI (OVCAR-3 ovarian) was greater than 100 µM, the GI50 (SK-MEL-28 melanoma) was greater than 100 µM and the TGI (SK-MEL-28 melanoma) was greater than 100 µM. The GI50 (BT-549 breast) was 66.4 µM, the TGI (BT-549 breast) was greater than 100 µM and the GI50 (HL-60(TB) leukemia) was 82.4 µM. It also gave a TGI (HL-60(TB) leukemia) greater than 100 µM, a GI50 (NCI-H522 lung) greater than 100 µM and a TGI (NCI-H522 lung) greater than 100 µM.

From PubChem BioAssay (NCI)
